Results: patent US12091411B2, “IRAK degraders and uses thereof” (Kymera Therapeutics, Inc., priority 2022, dated 2024)
Where two headings read alike, the source gives them in different places.

Target: T1, IRAK4 (Homo sapiens, UniProt Q9NWZ3)
T1 construct: Degradation of IRAK4 in OCI-LY10 was quantitatively measured using Meso Scale Discovery technology; endogenous in cells; host or cells: OCI-LY10
T1 sequence (Q9NWZ3 1-460): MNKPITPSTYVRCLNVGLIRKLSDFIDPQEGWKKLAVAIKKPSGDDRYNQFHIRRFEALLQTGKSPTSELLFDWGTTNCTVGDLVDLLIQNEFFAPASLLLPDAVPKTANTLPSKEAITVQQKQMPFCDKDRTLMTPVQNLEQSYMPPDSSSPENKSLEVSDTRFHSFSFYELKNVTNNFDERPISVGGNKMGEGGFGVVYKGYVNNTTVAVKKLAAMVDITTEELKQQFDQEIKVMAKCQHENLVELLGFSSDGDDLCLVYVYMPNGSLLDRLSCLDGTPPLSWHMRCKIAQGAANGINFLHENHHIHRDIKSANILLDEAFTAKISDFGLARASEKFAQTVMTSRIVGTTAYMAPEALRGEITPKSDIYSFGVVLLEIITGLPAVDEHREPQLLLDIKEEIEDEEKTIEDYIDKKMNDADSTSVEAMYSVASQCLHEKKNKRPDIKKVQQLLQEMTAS
Experiment: IRAK4 MSD Degradation in OCI-LY10
Type: cell-based
Conditions: OCI-LY10 cells, MSD
Protocol: Degradation of IRAK4 in OCI-LY10 was quantitatively measured using Meso Scale Discovery technology. […] Compounds were then added to the assay plates with a final top concentration of 1 to 10 μM in a 1:3 dilution series with total of 8 doses. The assay plates were then incubated for 4 to 24 hours at 37° C. under 5% CO2. […] To prepare MSD assay plates (Meso Scale Discovery Catalog number L15XA-3), the plates were coated with 2 μg/mL capture antibody (mouse Anti-IRAK4 antibody [2H9], ab119942) in PBS, at 40 μL/well. […] Cell lysates were then added to MSD assay plates and the plates were incubated at room temperature for 1 hour. The plates were then washed 3 times with 150 μL/well TBST buffer and 25 μL/well primary detection antibody (rabbit Anti-IRAK4 antibody [Y279], from Abcam. Catalog number ab32511, 1 μg/mL). The assay plates were then incubated at room temperature for 1 hour, washed 3 times with 150 μL/well TBST buffer and 25 μL/well secondary detection antibody, SULFO-TAG anti-rabbit antibody were added (anti-rabbit antibody from Meso Scale Discovery, Catalog number R32AB-1, 1 μg/mL). The assay plates were then incubated at room temperature for 1 hour, washed 3 times with 150 μL/well TBST buffer, and 150 μL/well MSD reading buffer (Meso Scale Discovery catalog number R92TC-2) was added. The plates were then analyzed by a MSD reader (Meso Scale Discovery, Model Quick Plex SQ 120). The data was then analyzed by software Prism 7.0 from GraphPad and the dose-depended IRAK4 degradation were fit using a three-parameter logistic equation to calculate DC50.
The letter codes for IRAK4 DC50 include: A (<0.01 μM); B (0.01 to <0.1 μM); C (0.1 to 0.2 μM); and D (>0.2 μM or not tested).

[1] = 4 hrs incubation, read-out: IRAK4 degradation in OCI-LY10 at 4 hrs: DC50
[2] = 24 hrs incubation, read-out: IRAK4 degradation in OCI-LY10 at 24 hrs: DC50

DC50 [1] [nM]	DC50 [2] [nM]	SMILES
> 200	> 200	Cc1cccc(C(=O)Nc2cc3cn([C@H]4CC[C@H](CN5CC[C@H](c6cccc7c6n(C)c(=O)n7C6CCC(=O)NC6=O)[C@H](F)C5)CC4)nc3cc2C(C)(C)O)n1 (some centres unmarked) [I-647]
> 200	> 200	Cn1c(=O)n(C2CCC(=O)NC2=O)c2cccc(C#CCN3CCN(C[C@H]4CC[C@H](n5cc(NC(=O)c6cnn7ccc(N8CCOC(C(F)F)C8)nc67)c(C(F)F)n5)CC4)CC3)c21 (some centres unmarked) [I-407]
10 to 100	> 200	Cn1c(=O)n(C2CCC(=O)NC2=O)c2cccc(C#CCN3CCN(C[C@H]4CC[C@H](n5cc(NC(=O)c6cnn7ccc(N8C[C@H]9C[C@@H]8CO9)nc67)c(C(F)(F)F)n5)CC4)CC3)c21 (relative stereo) [I-112]
> 200	> 200	CC([C@H]1CC[C@H](n2cc(NC(=O)c3cnn4ccc(N5C[C@H]6C[C@@H]5CO6)nc34)c(C(F)F)n2)CC1)N1CCN(CC#Cc2cccc3c2n(C)c(=O)n3C2CCC(=O)NC2=O)CC1 (some centres unmarked) [I-194]
< 10	> 200	Cn1c(=O)n(C2CCC(=O)NC2=O)c2cccc(N3CCC4(CCN(C[C@H]5CC[C@H](c6nc7cc(C(C)(C)O)c(NC(=O)c8cncc(C#N)c8)cc7s6)CC5)CC4)CC3)c21 (some centres unmarked) [I-97]
> 200	< 10	Cn1c(=O)n(C2CCC(=O)NC2=O)c2cccc(N3CC(O)(CN4CCN(C[C@H]5CC[C@H](n6cc(NC(=O)c7cnn8ccc(N9C[C@H]%10CC9CO%10)nc78)c(C(F)F)n6)CC5)CC4)C3)c21 (some centres unmarked) [I-605]
> 200	< 10	Cn1c(=O)n(C2CCC(=O)NC2=O)c2cccc([C@H]3C[C@H](CO[C@@H]4CCN(C[C@H]5CC[C@H](n6cc(NC(=O)c7cnn8ccc(N9C[C@H]%10C[C@@H]9CO%10)nc78)c(C(F)F)n6)CC5)C[C@@H]4F)C3)c21 (some centres unmarked) [I-722]
> 200	> 200	Cn1c(=O)n(C2CCC(=O)NC2=O)c2cccc([C@H]3CCN(C[C@H]4CC[C@H](n5cc6cc(NC(=O)c7cccc(C#N)n7)ncc6n5)CC4)C[C@H]3F)c21 (some centres unmarked) [I-639]
< 10	> 200	COc1cc2nn([C@H]3CC[C@H](CN4CCC5(CC4)CCN(c4cccc6c4n(C)c(=O)n6C4CCC(=O)NC4=O)CC5)CC3)cc2cc1NC(=O)c1nn(C)cc1Cl (some centres unmarked) [I-157]
> 200	10 to 100	O=C1CCC(c2cccc3c(C#CCN4CCN(C[C@H]5CC[C@@H](n6cc(NC(=O)c7cnn8ccc(N9C[C@H]%10C[C@@H]9CO%10)nc78)c(C(F)F)n6)CC5)CC4)cccc23)C(=O)N1 (some centres unmarked) [I-250]
> 200	10 to 100	Cn1c(=O)n(C2CCC(=O)NC2=O)c2cccc(C3CCN(C[C@H]4CC[C@H](n5cc6cc(NC(=O)c7cccc(C(F)(F)F)n7)c(F)cc6n5)CC4)CC3F)c21 (some centres unmarked) [I-554]
> 200	10 to 100	CC(C)(O)c1cc2nn([C@H]3CC[C@H](CNCCCCCCCNc4cccc5c4C(=O)N(C4CCC(=O)NC4=O)C5=O)CC3)cc2cc1NC(=O)c1cccc(C(F)(F)F)n1 (some centres unmarked) [I-139]
> 200	–	COc1cc2nn([C@H]3CC[C@H](CN4CC(c5cccc6c5n(C)c(=O)n6C5CCC(=O)NC5=O)C4)CC3)cc2cc1NC(=O)c1nc(C(C)(C)F)ccc1OC (some centres unmarked) [I-136]
> 200	> 200	Cn1c(=O)n(C2CCC(=O)NC2=O)c2cccc([C@H]3CCN(C[C@H]4CC[C@H](n5cc6cc(NC(=O)c7cccc(C(F)(F)F)n7)ncc6n5)CC4)C[C@@H]3F)c21 (some centres unmarked) [I-657]
> 200	> 200	COc1cc2nn([C@H]3CC[C@H](CN4CCC5(CC4)CCN(c4cccc(N6CCC(=O)NC6=O)c4)CC5)CC3)cc2cc1NC(=O)c1cncc(C#N)c1 [I-85]
> 200	> 200	CN(C[C@H]1CC[C@H](n2cc3cc(NC(=O)c4cccc(C(F)(F)F)n4)c([S+](C)[O-])cc3n2)CC1)C1CCN(c2cccc3c2n(C)c(=O)n3C2CCC(=O)NC2=O)CC1F (some centres unmarked) [I-561]
> 200	> 200	C[C@H]1CN(c2ccn3ncc(C(=O)Nc4cn([C@H]5CC[C@H](CN(C)C6CN(c7cccc8c7n(C)c(=O)n8C7CCC(=O)NC7=O)C6)CC5)nc4C(F)F)c3n2)CCO1 (some centres unmarked) [I-603]

DC50 [1] [nM]	DC50 [2] [nM]	SMILES
> 200	< 10	Cn1c(=O)n(C2CCC(=O)NC2=O)c2cccc(C3CN([C@@H]4CCN(C[C@H]5CC[C@H](n6cc(NC(=O)c7cnn8ccc(N9C[C@H]%10C[C@@H]9CO%10)nc78)c(C(F)F)n6)CC5)C[C@@H]4F)C3)c21 (some centres unmarked) [I-673]
> 200	> 200	Cn1c(=O)n(C2CCC(=O)NC2=O)c2cccc(C3CN(C[C@H]4CC[C@H](n5cc6cc(NC(=O)c7cccc(C(F)(F)F)n7)ncc6n5)CC4)C3)c21 (some centres unmarked) [I-610]
> 200	< 10	Cn1c(=O)n(C2CCC(=O)NC2=O)c2cccc(N3CCC4(CCN(C[C@H]5CC[C@H](n6cc(NC(=O)c7cnn8cccnc78)c(C(F)F)n6)CC5)CC4)CC3)c21 (some centres unmarked) [I-236]
> 200	< 10	Cn1c(=O)n(C2CCC(=O)NC2=O)c2cccc(C3CN(C4CCN([C@H]5CC[C@H](n6cc(NC(=O)c7cnn8ccc(N9C[C@H]%10C[C@@H]9CO%10)nc78)c(C(F)F)n6)CC5)CC4(F)F)C3)c21 (single isomer, unassigned) [I-736]
10 to 100	> 200	CC(C)c1ccn2ncc(C(=O)Nc3cn([C@H]4CC[C@H](CN5CCN(CC#Cc6cccc7c6n(C)c(=O)n7C6CCC(=O)NC6=O)CC5)CC4)nc3C(F)F)c2n1 (some centres unmarked) [I-104]
> 200	> 200	Cn1c(=O)n(C2CCC(=O)NC2=O)c2cccc([C@H]3C[C@H](COC4CCN(C[C@H]5CC[C@H](n6cc(NC(=O)c7cnn8ccc(N9C[C@H]%10C[C@@H]9CO%10)nc78)c(C(F)F)n6)CC5)CC4F)C3)c21 (some centres unmarked) [I-571]
> 200	> 200	CN(C[C@H]1CC[C@H](n2cc(NC(=O)c3cnn4ccc(N5CCCCC5(C)C)nc34)c(C(F)F)n2)CC1)C1CCN(c2cccc3c2n(C)c(=O)n3C2CCC(=O)NC2=O)CC1(F)F (some centres unmarked) [I-518]
10 to 100	> 200	COc1ccn2ncc(C(=O)Nc3cn([C@H]4CC[C@H](CN5CCN(CC#Cc6cccc7c6n(C)c(=O)n7C6CCC(=O)NC6=O)CC5)CC4)nc3C(F)F)c2n1 (some centres unmarked) [I-99]
100 to 200	> 200	COc1nn([C@H]2CC[C@H](CN3CCN(CC#Cc4cccc5c4n(C)c(=O)n5C4CCC(=O)NC4=O)CC3)CC2)cc1NC(=O)c1cnn2ccc(N3C[C@H]4C[C@@H]3CO4)nc12 (some centres unmarked) [I-121]
100 to 200	> 200	Cn1c(=O)n(C2CCC(=O)NC2=O)c2cccc(C#CCN3CCN(C[C@H]4CC[C@H](n5cc(NC(=O)c6cnn7ccc(N8CC(F)(F)C8)nc67)c(C(F)F)n5)CC4)CC3)c21 (some centres unmarked) [I-414]
10 to 100	> 200	Cn1c(=O)n(C2CCC(=O)NC2=O)c2cccc(C#CCN3CCN(C[C@H]4CC[C@H](n5cc(NC(=O)c6cnn7ccc(N8CCCCC8)nc67)c(C(F)F)n5)CC4)CC3)c21 (some centres unmarked) [I-100]
> 200	> 200	O=C1CCN(c2cncc3c(C4CCN(C[C@H]5CC[C@H](n6cc7cc(NC(=O)c8cccc(C(F)(F)F)n8)ccc7n6)CC5)CC4(F)F)cccc23)C(=O)N1 (some centres unmarked) [I-469]
> 200	< 10	Cn1c(=O)n(C2CCC(=O)NC2=O)c2cccc(C#CCN3CCN(C[C@H]4CC[C@H](n5cc(NC(=O)c6cnn7ccc(N8CC9(CC9)C8)nc67)c(C(F)F)n5)CC4)CC3)c21 (some centres unmarked) [I-226]
> 200	< 10	Cn1c(=O)n(C2CCC(=O)NC2=O)c2cccc(C3CCN(C[C@H]4CC[C@H](n5cc6cc(NC(=O)c7cccc(C#N)n7)ccc6n5)CC4)CC3(F)F)c21 (some centres unmarked) [I-716]
> 200	> 200	COc1ccc2c(c1N1CCC(N(C)C[C@H]3CC[C@H](n4cc(NC(=O)c5cnn6cccnc56)c(C(F)F)n4)CC3)C(F)C1)n(C)c(=O)n2C1CCC(=O)NC1=O (some centres unmarked) [I-563]
10 to 100	> 200	Cc1ccn2ncc(C(=O)Nc3cn([C@H]4CC[C@H](CN5CCN(CC#Cc6cccc7c6n(C)c(=O)n7C6CCC(=O)NC6=O)CC5)CC4)nc3C(F)F)c2n1 (some centres unmarked) [I-102]
